{"source": "ChEMBL document CHEMBL1201862", "about": "“PubChem BioAssay data set” (2004)", "key": {"[1]": {"target": "72 kDa type IV collagenase (Homo sapiens, UniProt P08253)", "sequence (P08253 whole entry)": "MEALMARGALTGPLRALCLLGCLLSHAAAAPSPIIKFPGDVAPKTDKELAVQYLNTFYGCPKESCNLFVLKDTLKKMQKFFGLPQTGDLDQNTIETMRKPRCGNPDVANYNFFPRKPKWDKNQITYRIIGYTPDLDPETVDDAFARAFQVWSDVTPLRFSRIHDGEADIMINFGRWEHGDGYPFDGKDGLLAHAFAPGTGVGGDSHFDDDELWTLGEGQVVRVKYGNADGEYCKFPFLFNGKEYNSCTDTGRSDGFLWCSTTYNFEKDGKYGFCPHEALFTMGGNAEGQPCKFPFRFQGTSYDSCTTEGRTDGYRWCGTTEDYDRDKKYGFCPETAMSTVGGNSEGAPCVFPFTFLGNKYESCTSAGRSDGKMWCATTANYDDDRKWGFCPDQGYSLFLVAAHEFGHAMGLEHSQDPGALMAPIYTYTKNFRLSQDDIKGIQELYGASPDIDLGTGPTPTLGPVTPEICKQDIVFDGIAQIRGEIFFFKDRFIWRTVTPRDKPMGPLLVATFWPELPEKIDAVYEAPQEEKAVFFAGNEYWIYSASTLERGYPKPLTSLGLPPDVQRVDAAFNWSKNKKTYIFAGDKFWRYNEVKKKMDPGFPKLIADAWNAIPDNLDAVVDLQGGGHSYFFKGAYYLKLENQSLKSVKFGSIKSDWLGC", "test": "Dose Response validation of uHTS RPN11 inhibitor hits using a MMP-2 Fluorescence assay.", "type": "functional"}, "Prothrombin": {"target": "Prothrombin (Bos taurus, UniProt P00735)", "test": "thrombin inhibition, dose response, biochemical, fluorescence polarization, uHTS hits (AID 602369)", "type": "functional"}, "[2]": {"target": "T1, Sentrin-specific protease 1 (Homo sapiens, UniProt Q9P0U3)", "T1 sequence (Q9P0U3 whole entry)": "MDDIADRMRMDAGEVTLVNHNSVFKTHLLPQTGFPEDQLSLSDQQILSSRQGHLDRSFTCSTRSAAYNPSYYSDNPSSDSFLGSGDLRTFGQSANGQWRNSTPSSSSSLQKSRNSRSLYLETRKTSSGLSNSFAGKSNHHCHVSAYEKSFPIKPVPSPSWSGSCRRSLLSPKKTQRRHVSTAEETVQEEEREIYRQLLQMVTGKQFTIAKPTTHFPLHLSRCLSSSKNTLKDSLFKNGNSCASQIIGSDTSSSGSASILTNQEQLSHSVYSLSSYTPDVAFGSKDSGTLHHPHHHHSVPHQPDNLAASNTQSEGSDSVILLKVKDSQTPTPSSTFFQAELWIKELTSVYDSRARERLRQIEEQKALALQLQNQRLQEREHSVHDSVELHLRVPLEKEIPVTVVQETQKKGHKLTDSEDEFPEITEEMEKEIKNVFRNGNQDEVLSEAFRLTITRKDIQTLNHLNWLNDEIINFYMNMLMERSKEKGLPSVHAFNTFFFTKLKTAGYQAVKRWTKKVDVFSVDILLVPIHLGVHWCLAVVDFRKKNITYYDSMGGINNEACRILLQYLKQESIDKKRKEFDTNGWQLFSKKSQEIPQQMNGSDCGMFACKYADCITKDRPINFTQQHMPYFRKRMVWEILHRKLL", "test": "potency of human SENP1 inhibitors, dose response, biochemical, kinetic FRET (AID 651697)", "type": "functional", "details": "read-out: IC50_Mean"}, "[3]": {"target": "26S proteasome non-ATPase regulatory subunit 14 (Homo sapiens, UniProt O00487)", "sequence (O00487 whole entry)": "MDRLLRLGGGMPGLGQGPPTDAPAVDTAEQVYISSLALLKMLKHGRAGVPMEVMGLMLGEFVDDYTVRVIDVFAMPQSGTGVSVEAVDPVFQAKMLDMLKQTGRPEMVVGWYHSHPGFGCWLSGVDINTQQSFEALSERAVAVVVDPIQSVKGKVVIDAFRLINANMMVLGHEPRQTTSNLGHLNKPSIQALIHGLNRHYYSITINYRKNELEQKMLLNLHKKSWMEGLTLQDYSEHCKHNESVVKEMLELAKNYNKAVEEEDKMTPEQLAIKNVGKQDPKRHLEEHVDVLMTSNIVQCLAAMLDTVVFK", "test": "inhibition of proteasome subunit RPN11 – biochemical, fluorescence polarization, uHTS hits, confirmation (AID 602368)", "type": "functional"}, "[4]": {"target": "T1, Sentrin-specific protease 1", "test": "Dose response confirmation of small molecule inhibitors of the catalytic domain of the SUMO protease, SENP1 in a FRET assay.", "type": "functional", "details": "read-out: IC50_Mean"}, "Beta-lactamase [5]": {"target": "Beta-lactamase (Pseudomonas aeruginosa, UniProt Q79MP6)", "sequence (Q79MP6 whole entry)": "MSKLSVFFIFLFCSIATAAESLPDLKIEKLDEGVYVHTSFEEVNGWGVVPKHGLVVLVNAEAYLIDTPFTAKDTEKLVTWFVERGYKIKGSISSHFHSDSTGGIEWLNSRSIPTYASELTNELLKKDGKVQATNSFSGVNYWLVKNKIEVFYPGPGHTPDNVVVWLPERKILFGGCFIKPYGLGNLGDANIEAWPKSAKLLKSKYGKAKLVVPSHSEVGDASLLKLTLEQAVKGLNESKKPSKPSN"}, "Beta-lactamase [6]": {"target": "Beta-lactamase (Salmonella choleraesuis (strain SC-B67), UniProt Q5J463)", "sequence (Q5J463 whole entry)": "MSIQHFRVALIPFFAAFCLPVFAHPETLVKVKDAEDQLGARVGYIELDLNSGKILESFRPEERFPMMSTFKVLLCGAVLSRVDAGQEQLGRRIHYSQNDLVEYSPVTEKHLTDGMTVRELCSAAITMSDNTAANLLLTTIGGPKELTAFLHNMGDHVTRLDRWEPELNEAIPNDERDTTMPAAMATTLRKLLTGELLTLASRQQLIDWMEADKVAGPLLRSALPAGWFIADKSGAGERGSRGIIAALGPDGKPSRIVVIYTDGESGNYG"}, "[7]": {"target": "T2, Short transient receptor potential channel 4 (Mus musculus, UniProt Q9QUQ5)", "T2 sequence (Q9QUQ5 whole entry)": "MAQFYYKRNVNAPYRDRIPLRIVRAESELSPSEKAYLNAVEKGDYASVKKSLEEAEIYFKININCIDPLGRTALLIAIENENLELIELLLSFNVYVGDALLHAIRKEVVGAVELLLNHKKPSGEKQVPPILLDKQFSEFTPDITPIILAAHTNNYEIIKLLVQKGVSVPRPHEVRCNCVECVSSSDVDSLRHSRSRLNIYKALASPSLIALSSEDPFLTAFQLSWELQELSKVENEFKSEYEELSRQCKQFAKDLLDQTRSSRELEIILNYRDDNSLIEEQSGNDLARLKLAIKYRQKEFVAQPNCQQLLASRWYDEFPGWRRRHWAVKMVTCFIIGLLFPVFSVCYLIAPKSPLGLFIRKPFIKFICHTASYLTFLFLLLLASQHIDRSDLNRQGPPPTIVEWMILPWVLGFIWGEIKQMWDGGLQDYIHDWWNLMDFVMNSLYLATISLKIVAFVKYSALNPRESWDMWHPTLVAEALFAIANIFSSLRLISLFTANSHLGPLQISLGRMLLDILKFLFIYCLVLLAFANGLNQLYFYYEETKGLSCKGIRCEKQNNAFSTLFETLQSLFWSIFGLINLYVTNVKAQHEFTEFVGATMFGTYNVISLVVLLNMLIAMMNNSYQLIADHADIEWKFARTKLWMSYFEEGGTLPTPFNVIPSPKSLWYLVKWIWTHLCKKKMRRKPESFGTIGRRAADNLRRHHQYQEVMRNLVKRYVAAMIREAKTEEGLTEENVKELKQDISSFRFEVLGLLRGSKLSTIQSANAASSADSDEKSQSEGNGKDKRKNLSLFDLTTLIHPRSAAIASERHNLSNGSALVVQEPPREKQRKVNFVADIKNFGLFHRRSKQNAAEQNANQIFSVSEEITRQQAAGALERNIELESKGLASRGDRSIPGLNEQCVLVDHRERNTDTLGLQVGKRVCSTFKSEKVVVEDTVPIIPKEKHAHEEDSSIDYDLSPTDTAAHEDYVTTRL", "test": "mouse TRPC4 channel activators, dose response, cell-based, HEK293 TRPC4/mu-opioid, Fluo-4 calcium (AID 434937)", "type": "functional"}, "Mu-type opioid receptor": {"target": "Mu-type opioid receptor (Homo sapiens, UniProt P35372)", "sequence (P35372 whole entry)": "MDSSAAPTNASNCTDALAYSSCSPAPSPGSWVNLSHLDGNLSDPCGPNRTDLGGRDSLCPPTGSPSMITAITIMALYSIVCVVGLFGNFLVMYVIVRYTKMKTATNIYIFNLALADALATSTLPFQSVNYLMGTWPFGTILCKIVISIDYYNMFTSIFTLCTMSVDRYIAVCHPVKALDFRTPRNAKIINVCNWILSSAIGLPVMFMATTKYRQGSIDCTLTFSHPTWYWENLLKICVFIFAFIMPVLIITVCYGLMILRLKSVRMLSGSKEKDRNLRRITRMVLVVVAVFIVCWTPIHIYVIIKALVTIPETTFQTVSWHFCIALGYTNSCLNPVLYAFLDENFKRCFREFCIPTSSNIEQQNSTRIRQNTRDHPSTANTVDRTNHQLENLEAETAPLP", "type": "functional, cell-based"}, "[8]": {"target": "5-hydroxytryptamine receptor 2A (Mus musculus, UniProt P35363)", "sequence (P35363 whole entry)": "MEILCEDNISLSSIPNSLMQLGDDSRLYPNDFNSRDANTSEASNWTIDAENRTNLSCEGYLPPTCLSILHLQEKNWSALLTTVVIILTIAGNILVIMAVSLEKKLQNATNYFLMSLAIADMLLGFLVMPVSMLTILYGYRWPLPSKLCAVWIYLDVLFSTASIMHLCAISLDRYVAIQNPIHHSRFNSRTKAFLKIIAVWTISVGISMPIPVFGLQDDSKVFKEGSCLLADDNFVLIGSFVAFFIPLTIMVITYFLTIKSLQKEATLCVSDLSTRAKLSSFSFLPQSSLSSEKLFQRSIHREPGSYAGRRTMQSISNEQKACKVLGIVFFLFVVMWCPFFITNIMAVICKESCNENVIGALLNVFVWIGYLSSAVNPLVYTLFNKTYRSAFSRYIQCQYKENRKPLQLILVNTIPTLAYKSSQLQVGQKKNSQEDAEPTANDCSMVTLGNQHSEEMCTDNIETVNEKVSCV", "type": "functional, cell-based"}, "HEK293 [9]": {"system": "HEK293", "test": "optical interference in Abeta FP readout, dose response, artefact control for IDE activator project, biochemical, fluorescence polarization (AID 588442)", "type": "functional, cell-based", "details": "Homo sapiens"}, "Insulin-degrading enzyme [10]": {"target": "T3, Insulin-degrading enzyme (Homo sapiens, UniProt P14735)", "T3 sequence (P14735 whole entry)": "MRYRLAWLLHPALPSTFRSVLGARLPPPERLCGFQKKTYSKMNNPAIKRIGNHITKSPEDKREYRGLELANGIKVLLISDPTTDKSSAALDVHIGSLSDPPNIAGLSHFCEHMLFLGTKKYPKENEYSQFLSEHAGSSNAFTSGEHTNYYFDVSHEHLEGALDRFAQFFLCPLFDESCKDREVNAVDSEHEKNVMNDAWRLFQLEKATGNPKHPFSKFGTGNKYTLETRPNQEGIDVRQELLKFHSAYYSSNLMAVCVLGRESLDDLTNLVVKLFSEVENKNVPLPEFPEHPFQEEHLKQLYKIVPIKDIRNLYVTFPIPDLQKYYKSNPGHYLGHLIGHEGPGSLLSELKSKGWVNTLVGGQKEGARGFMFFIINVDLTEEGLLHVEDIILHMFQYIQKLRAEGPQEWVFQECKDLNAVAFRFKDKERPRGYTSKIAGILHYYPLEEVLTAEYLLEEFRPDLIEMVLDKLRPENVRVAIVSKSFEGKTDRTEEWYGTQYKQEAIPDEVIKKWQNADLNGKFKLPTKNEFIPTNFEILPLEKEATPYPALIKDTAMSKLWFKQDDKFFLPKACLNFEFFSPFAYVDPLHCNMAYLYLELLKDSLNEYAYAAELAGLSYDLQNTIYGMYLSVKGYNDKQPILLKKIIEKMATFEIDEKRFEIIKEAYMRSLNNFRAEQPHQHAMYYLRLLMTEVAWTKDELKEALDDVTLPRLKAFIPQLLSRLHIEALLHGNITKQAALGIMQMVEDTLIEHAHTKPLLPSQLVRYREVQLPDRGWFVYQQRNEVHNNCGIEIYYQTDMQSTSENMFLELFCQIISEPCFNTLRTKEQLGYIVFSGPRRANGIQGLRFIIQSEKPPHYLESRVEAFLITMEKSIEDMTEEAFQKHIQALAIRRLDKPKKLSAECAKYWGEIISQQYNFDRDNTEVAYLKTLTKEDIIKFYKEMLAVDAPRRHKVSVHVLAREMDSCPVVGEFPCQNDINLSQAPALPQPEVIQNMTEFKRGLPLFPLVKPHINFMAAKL", "test": "activators of recombinant IDE enzyme, dose response, counter-screen for IDE activator project, biochemical, fluorescence polarization (AID 588681)"}, "HeLa": {"system": "HeLa", "test": "HeLa cell cytotoxicity, dose response, cytotoxicity control, 24 h, cherry-picked samples (AID 504726);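 further: potency for cytotoxicity as loss of luminescence signal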", "type": "functional, cell-based", "details": "Homo sapiens"}, "ORF 73": {"target": "T4, ORF 73 (Human herpesvirus 8, UniProt O40947)", "T4 sequence (O40947 whole entry)": "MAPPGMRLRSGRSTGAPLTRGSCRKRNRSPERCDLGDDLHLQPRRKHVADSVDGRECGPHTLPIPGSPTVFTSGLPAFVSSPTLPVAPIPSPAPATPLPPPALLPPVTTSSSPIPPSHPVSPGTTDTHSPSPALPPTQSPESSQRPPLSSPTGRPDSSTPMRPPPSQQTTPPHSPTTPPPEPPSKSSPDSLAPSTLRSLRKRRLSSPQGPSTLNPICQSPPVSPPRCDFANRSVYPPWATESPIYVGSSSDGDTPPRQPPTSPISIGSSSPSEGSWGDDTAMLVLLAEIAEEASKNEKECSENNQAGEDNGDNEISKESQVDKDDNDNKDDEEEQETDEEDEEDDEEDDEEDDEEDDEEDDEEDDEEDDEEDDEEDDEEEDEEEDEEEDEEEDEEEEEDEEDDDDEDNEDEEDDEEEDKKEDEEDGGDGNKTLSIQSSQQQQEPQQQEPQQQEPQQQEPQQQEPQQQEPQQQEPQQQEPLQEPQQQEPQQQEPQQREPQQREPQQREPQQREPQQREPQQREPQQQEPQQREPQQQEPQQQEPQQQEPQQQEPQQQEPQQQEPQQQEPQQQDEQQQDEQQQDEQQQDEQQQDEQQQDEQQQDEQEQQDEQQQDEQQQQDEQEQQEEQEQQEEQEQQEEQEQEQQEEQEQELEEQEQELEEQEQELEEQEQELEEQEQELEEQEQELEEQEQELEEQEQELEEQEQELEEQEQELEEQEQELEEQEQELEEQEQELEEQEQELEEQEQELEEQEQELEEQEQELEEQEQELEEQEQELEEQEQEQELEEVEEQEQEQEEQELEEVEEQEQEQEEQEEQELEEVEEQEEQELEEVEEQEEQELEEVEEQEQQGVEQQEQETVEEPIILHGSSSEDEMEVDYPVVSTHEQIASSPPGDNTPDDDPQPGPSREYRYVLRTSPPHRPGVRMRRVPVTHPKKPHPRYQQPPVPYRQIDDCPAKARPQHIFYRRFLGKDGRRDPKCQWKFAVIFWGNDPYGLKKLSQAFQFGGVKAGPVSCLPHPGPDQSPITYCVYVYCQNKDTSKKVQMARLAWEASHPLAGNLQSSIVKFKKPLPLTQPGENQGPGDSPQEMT", "test": "inhibitors of C-LANA binding to LBS DNA, dose response, biochemical, fluorescence polarization, cherry-picked samples (AID 504725);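 further: fluorescence polarization of a labeled DNA duplex reporting LANA DNA binding; potency is for inhibitors that block LANA binding to the DNA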", "set-up": "species or system Human gammaherpesvirus 8"}, "Protein S100-A4": {"target": "Protein S100-A4 (Homo sapiens, UniProt P26447)", "sequence (P26447 whole entry)": "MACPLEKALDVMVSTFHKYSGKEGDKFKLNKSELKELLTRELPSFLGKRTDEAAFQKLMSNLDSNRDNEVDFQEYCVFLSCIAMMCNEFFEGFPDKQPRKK", "test": "S100A4-myosin IIA binding inhibitor potency, dose response, biochemical, fluorescence polarization, cherry-picked hits (AID 687001)", "type": "functional"}, "HEK293 [11]": {"system": "HEK293", "test": "HEK cell cytotoxicity by LDH release, dose response, cytotoxicity control for IDE activator project, fluorescence, HEK cells (AID 588440);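 further: cytotoxicity by LDH release measuring loss of membrane integrity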", "type": "functional, cell-based", "details": "Homo sapiens"}, "Insulin-degrading enzyme [12]": {"target": "T3, Insulin-degrading enzyme", "test": "activators of endogenous IDE in HEK cells, dose response, cell-based, fluorescence polarization (AID 588439)", "type": "functional"}, "Albumin": {"target": "Albumin (Bos taurus, UniProt P02769)", "sequence (P02769 whole entry)": "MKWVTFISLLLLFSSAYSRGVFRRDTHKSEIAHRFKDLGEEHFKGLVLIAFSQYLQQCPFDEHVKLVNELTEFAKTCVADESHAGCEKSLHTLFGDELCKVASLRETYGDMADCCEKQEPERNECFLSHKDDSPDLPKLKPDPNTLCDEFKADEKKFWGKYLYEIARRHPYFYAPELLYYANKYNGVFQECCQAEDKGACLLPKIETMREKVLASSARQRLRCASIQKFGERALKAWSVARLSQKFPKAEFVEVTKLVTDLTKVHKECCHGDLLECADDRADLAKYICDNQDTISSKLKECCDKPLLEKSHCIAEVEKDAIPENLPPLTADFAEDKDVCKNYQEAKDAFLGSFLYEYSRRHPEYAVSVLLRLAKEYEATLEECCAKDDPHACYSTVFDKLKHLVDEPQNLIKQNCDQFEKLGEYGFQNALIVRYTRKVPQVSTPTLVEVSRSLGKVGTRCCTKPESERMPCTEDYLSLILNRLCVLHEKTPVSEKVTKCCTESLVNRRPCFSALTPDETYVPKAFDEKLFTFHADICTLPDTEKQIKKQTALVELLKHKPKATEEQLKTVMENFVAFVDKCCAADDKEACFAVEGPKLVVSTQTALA", "test": "Counterscreen for inhibitors of T-cell receptor (TCR)-CD3 interaction: Fluorescence-based biochemical high throughput dose response assay to identify inhibitors of T-cell receptor (TCR)-CD3 interaction using a TAMRA-labeled BSA probe.", "type": "functional"}, "H9c2": {"system": "H9c2", "test": "cells", "type": "functional, cell-based", "details": "Rattus norvegicus, H9c2, Myocardium"}, "[13]": {"test": "LMP1-driven NF-kB reporter inhibition, dose response, cell-based, luciferase reporter, luminescence, dry powder, set 2 (AID 624376)", "type": "functional"}, "[14]": {"test": "HEK293 cell viability, dose response, counter-screen for EBV LMP1 inhibitor project, dry powder, set 2 (AID 624374)", "type": "functional"}}, "note": "The source made the active and inactive calls."}
{"smiles": "COc1ccc2c(C)cc(SCC(=O)N3CCOCC3)nc2c1", "values": [{"measurement": "IC50", "setting": "[1]", "value": "> 100 µM (inactive)"}, {"measurement": "IC50", "setting": "Prothrombin", "value": "21.6 µM (active)"}, {"measurement": "IC50", "setting": "[2]", "value": "13.3 µM (active)"}, {"measurement": "IC50", "setting": "[3]", "value": "9.61 µM (active)"}, {"measurement": "IC50", "setting": "[4]", "value": "7.01 µM (active)"}]}
{"smiles": "O=C1/C(=C\\c2cc(Cl)c(O)c(Cl)c2)SC(=S)N1Cc1ccccc1", "values": [{"measurement": "IC50", "setting": "Beta-lactamase [5]", "value": "> 59.6 µM (inactive)"}, {"measurement": "IC50", "setting": "Beta-lactamase [6]", "value": "3.15 µM (active)"}, {"measurement": "EC50", "setting": "[7]", "value": "5.31 µM (active)"}]}
{"smiles": "CN(C)S(=O)(=O)c1cc(NC(=O)CN2CCN(c3ccccc3)CC2)ccc1Cl", "values": [{"measurement": "EC50", "setting": "Mu-type opioid receptor", "value": "92.4 µM (inactive)"}, {"measurement": "EC50", "setting": "[8]", "value": "30.5 µM (inactive)"}]}
{"smiles": "COc1ccc2c3c(cccc13)C(=O)CC2", "values": [{"measurement": "EC50", "setting": "HEK293 [9]", "value": "> 18.6 µM (inactive)"}, {"measurement": "EC50", "setting": "Insulin-degrading enzyme [10]", "value": "> 54.7 µM (inactive)"}, {"measurement": "AC50", "setting": "HeLa", "value": "31.7 µM (active)"}, {"measurement": "AC50", "setting": "ORF 73", "value": "6.76 µM (active)"}, {"measurement": "AC50", "setting": "Protein S100-A4", "value": "7.21 µM (active)"}, {"measurement": "IC50", "setting": "HEK293 [11]", "value": "> 89.2 µM (inactive)"}, {"measurement": "EC50", "setting": "Insulin-degrading enzyme [12]", "value": "> 54.7 µM (inactive)"}]}
{"smiles": "COC(=O)Cn1/c(=N/C(=O)c2cc(-c3cccs3)nc3ccccc23)sc2cc(S(N)(=O)=O)ccc21", "values": [{"measurement": "IC50", "setting": "Albumin", "value": "> 94.1 µM (inactive)"}, {"measurement": "IC50", "setting": "H9c2", "value": "28.2 µM (active)"}]}
{"smiles": "CCC(=O)N1Cc2cc(C(=O)Nc3nccs3)nc(-c3cccc(-c4ccccc4OC)c3)c2[C@H]1CCO", "values": [{"measurement": "AbsAC35", "setting": "[13]", "value": 49.1, "unit": "µM"}, {"measurement": "AbsAC35", "setting": "[14]", "value": 247.5, "unit": "µM"}]}
